From ChEMBL document CHEMBL1201862, “PubChem BioAssay data set” (2004)
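Assay format: 96-well plates, 48-hour exposure. Abbreviation: GI50, concentration required for 50% inhibition of growth.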 The source made the active and inactive calls. Cut-off read from the data, not from the text of the source: active = GI50 up to about 1.1 µM and inactive = higher.

Assays:
Assay in all cases: growth of human tumour cells (NCI), 48 h
M14 = system: M14
DMS-273 = system: DMS-273
NCI-H23 = system: NCI-H23
SNB-78 = system: SNB-78
HL-60 = system: HL-60
SF-268 = system: SF-268
SNB-75 = system: SNB-75
KM12 = system: KM12
HT-29 = system: HT-29
K562 = system: K562
IGROV-1 = system: IGROV-1
TK-10 = system: TK-10
HOP-62 = system: HOP-62
XF498 = system: XF498
OVCAR-8 = system: OVCAR-8
UACC-257 = system: UACC-257
RPMI-8226 = system: RPMI-8226
DMS-114 = system: DMS-114
HCT-116 = system: HCT-116
RXF 631 = system: RXF 631
SK-MEL-28 = system: SK-MEL-28
SNB-19 = system: SNB-19
SF-539 = system: SF-539
SF-295 = system: SF-295
LXFL 529 = system: LXFL 529
CCRF-CEM = system: CCRF-CEM
NCI-H226 = system: NCI-H226
EKVX = system: EKVX
HOP-92 = system: HOP-92
DLD-1 = system: DLD-1
MOLT-4 = system: MOLT-4
NCI-H522 = system: NCI-H522
COLO 205 = system: COLO 205
SK-OV-3 = system: SK-OV-3
SR = system: SR
NCI-H460 = system: NCI-H460
SN12C = system: SN12C
A549 = system: A549
RXF 393 = system: RXF 393
OVCAR-4 = system: OVCAR-4
SK-MEL-5 = system: SK-MEL-5
UO-31 = system: UO-31
CAKI-1 = system: CAKI-1
SK-MEL-2 = system: SK-MEL-2
UACC-62 = system: UACC-62
M19-MEL = system: M19-MEL
OVCAR-5 = system: OVCAR-5
SW-620 = system: SW-620
U-251 = system: U-251
ACHN = system: ACHN
KM-20L2 = system: KM-20L2
A498 = system: A498
HCT-15 = system: HCT-15
LOX IMVI = system: LOX IMVI
HCC 2998 = system: HCC 2998
786-0 = system: 786-0
Malme-3M = system: Malme-3M
OVCAR-3 = system: OVCAR-3

## COC(=O)C(Cc1cc(OC)c(OC)c(OC)c1)(NC(=O)c1ccccc1)P(=O)(OC)OC (centres undefined)
M14
  GI50: > 100 µM (inactive)
DMS-273
  GI50: > 100 µM (inactive)
NCI-H23
  GI50: > 100 µM (inactive)
SNB-78
  GI50: > 100 µM (inactive)
HL-60
  GI50: > 100 µM (inactive)
SF-268
  GI50: > 100 µM (inactive)
SNB-75
  GI50: > 100 µM (inactive)
KM12
  GI50: > 100 µM (inactive)
HT-29
  GI50: > 100 µM (inactive)
K562
  GI50: > 100 µM (inactive)
IGROV-1
  GI50: > 100 µM (inactive)
TK-10
  GI50: > 100 µM (inactive)
HOP-62
  GI50: > 100 µM (inactive)
XF498
  GI50: > 100 µM (inactive)
OVCAR-8
  GI50: > 100 µM (inactive)
UACC-257
  GI50: > 100 µM (inactive)
RPMI-8226
  GI50: > 100 µM (inactive)
DMS-114
  GI50: > 100 µM (inactive)
HCT-116
  GI50: > 100 µM (inactive)
RXF 631
  GI50: > 100 µM (inactive)
SK-MEL-28
  GI50: > 100 µM (inactive)
SNB-19
  GI50: > 100 µM (inactive)
SF-539
  GI50: > 100 µM (inactive)
SF-295
  GI50: > 100 µM (inactive)
LXFL 529
  GI50: > 100 µM (inactive)
CCRF-CEM
  GI50: > 100 µM (inactive)
NCI-H226
  GI50: > 100 µM (inactive)
EKVX
  GI50: > 100 µM (inactive)
HOP-92
  GI50: > 100 µM (inactive)
DLD-1
  GI50: > 100 µM (inactive)
MOLT-4
  GI50: > 100 µM (inactive)
NCI-H522
  GI50: > 100 µM (inactive)
COLO 205
  GI50: > 100 µM (inactive)
SK-OV-3
  GI50: > 100 µM (inactive)
SR
  GI50: > 100 µM (inactive)
NCI-H460
  GI50: > 100 µM (inactive)
SN12C
  GI50: > 100 µM (inactive)
A549
  GI50: > 100 µM (inactive)
RXF 393
  GI50: > 100 µM (inactive)
OVCAR-4
  GI50: > 100 µM (inactive)
SK-MEL-5
  GI50: > 100 µM (inactive)
UO-31
  GI50: > 100 µM (inactive)
CAKI-1
  GI50: > 100 µM (inactive)
SK-MEL-2
  GI50: > 100 µM (inactive)
UACC-62
  GI50: > 100 µM (inactive)
M19-MEL
  GI50: > 100 µM (inactive)
OVCAR-5
  GI50: > 100 µM (inactive)
SW-620
  GI50: > 100 µM (inactive)
U-251
  GI50: > 100 µM (inactive)
ACHN
  GI50: > 100 µM (inactive)
KM-20L2
  GI50: > 100 µM (inactive)
A498
  GI50: > 100 µM (inactive)
HCT-15
  GI50: > 100 µM
LOX IMVI
  GI50: > 100 µM (inactive)
HCC 2998
  GI50: > 100 µM (inactive)

## CN(C(=O)C12C3(C(=O)C(C)(C)C)C4C5(C#N)C3C1(C(=O)C(C)(C)C)C5C42C(=O)C(C)(C)C)C(C)(C)C (centres undefined)
M14
  GI50: > 50 µM (inactive)
DMS-273
  GI50: 42.8 µM (inactive)
NCI-H23
  GI50: 40.6 µM (inactive)
SNB-78
  GI50: > 50 µM (inactive)
HL-60
  GI50: 16.1 µM (inactive)
SF-268
  GI50: 32.5 µM (inactive)
SNB-75
  GI50: 8.95 µM (inactive)
KM12
  GI50: > 50 µM (inactive)
HT-29
  GI50: > 50 µM (inactive)
K562
  GI50: 27.2 µM (inactive)
IGROV-1
  GI50: > 50 µM (inactive)
TK-10
  GI50: > 50 µM (inactive)
HOP-62
  GI50: > 50 µM (inactive)
XF498
  GI50: 10.4 µM (inactive)
OVCAR-8
  GI50: > 50 µM (inactive)
UACC-257
  GI50: 19.6 µM (inactive)
DMS-114
  GI50: 17.7 µM (inactive)
HCT-116
  GI50: 24.2 µM (inactive)
RXF 631
  GI50: 42.4 µM (inactive)
SK-MEL-28
  GI50: > 50 µM (inactive)
SNB-19
  GI50: > 50 µM (inactive)
SF-539
  GI50: > 50 µM (inactive)
SF-295
  GI50: > 50 µM (inactive)
LXFL 529
  GI50: 21.4 µM (inactive)
CCRF-CEM
  GI50: 16.6 µM (inactive)
NCI-H226
  GI50: > 50 µM (inactive)
786-0
  GI50: > 50 µM (inactive)
EKVX
  GI50: 43.3 µM (inactive)
HOP-92
  GI50: 30.8 µM (inactive)
DLD-1
  GI50: 35.3 µM (inactive)
MOLT-4
  GI50: 20 µM (inactive)
NCI-H522
  GI50: 14.5 µM (inactive)
COLO 205
  GI50: > 50 µM (inactive)
SK-OV-3
  GI50: > 50 µM (inactive)
SR
  GI50: 43.8 µM (inactive)
NCI-H460
  GI50: > 50 µM (inactive)
SN12C
  GI50: > 50 µM (inactive)
A549
  GI50: > 50 µM (inactive)
OVCAR-4
  GI50: 31.6 µM (inactive)
SK-MEL-5
  GI50: > 50 µM (inactive)
UO-31
  GI50: 29.6 µM (inactive)
CAKI-1
  GI50: 33.8 µM (inactive)
UACC-62
  GI50: 48.8 µM (inactive)
M19-MEL
  GI50: > 50 µM (inactive)
OVCAR-5
  GI50: > 50 µM (inactive)
SW-620
  GI50: > 50 µM (inactive)
U-251
  GI50: > 50 µM (inactive)
ACHN
  GI50: 25.2 µM (inactive)
Malme-3M
  GI50: > 50 µM (inactive)
KM-20L2
  GI50: > 50 µM (inactive)
OVCAR-3
  GI50: 38.9 µM (inactive)
A498
  GI50: > 50 µM (inactive)
HCT-15
  GI50: > 50 µM
HCC 2998
  GI50: > 50 µM (inactive)
